# Test results as given in US20250049027A1, “PLANT PATHOGEN COMPOSITION” (Robjulz Pty. Ltd., priority 2021, published 2025).
# Key:
# P. palmivora [1] = assay: In vivo testing using durian fruit, pre-treated then inoculated; set-up: species or system Phytophthora palmivora; conditions: concluded from the durian fruit data; ppm of BAC
# Protocol: Healthy durian fruits were harvested carefully from a durian plantation, for artificial inoculation with Phytophthora isolate DB4. Untreated durian fruits with five replicates were used as the control. Fungicidal compositions were prepared, as for Example 5, then applied to the fruit surface. Durian fruits with sterile distilled water were included as a negative control. The pre-treated fruits were inoculated with a 12 mm plug of a 5-day old culture of P. palmivora grown on CMA plates by placing over the intact skin at the centre of each fruit. The resulting durian fruits were kept in moist plastic trays, covered with black polythene sheets to maintain moisture level, and incubated at 25±2° C. in the dark for seven days. Measurement of lesions were made at seven days after inoculation.
# Phytophthora palmivora = assay: In vitro poison agar test, mycelial growth on corn meal agar; type: cell-based; conditions: concluded from the in vitro data; ppm of BAC
# Protocol: In vitro tests were performed against Phytophthora palmivora, the pathogen responsible for pod rot of cocoa, stem canker of durian and rubber, and foot rot of pepper, using a poison agar method as discussed below.
# A stock solution was prepared with (a) BAC (50% w/v in water, 180 mL), (b) STPP (25 g), and (c) BL8 (120 mL), with enough water to provide a total volume of 1 L.
# Corn meal agar (CMA, 17 g) medium (Oxoid™, Thermo Scientific) was added to distilled or deionized water (1 L) in accordance with the manufacturer's instruction before autoclaving at 121° C. for 20 minutes and cooling to 50-55° C. in a water bath. To the resulting mixture was added the stock solution described above, in accordance with the amounts in Table 3, or sterile distilled water (control sample). Five replications for each treatment were prepared, and the experiment was carried out using a completely randomized design (CRD).
# Mycelial growth in each treatment was recorded within seven days after incubation at room temperature with natural dark/light cycle in reference to the growth of the control. Percent inhibition of diameter growth (% PIDG) was calculated as follows:
# [formula] • where: dc=average diameter of fungal colony in the control plate, and • dt=average diameter of fungal colony in the treatment plate. […]
# [2] = test system: Fusarium oxysporum f. sp. cubense TR4 (FocTR4); assay: In vitro poison agar test, mycelial growth on potato dextrose agar; type: cell-based; conditions: concluded from the in vitro data; ppm of BAC
# Protocol: In vitro tests were performed against Fusarium oxysporum f. sp. cubense TR4 (FocTR4), the fungal pathogen responsible for Panama wilt of banana, using a poison agar method as discussed below.
# Potato dextrose agar (PDA, 39 g) medium (Difco™) was added to distilled or deionized water (1 L) in accordance with the manufacturer's instruction before autoclaving at 121° C. for 20 minutes and cooling to 50-55° C. in a water bath. To the resulting mixture was added the stock solution of Example 3, in accordance with the amounts in Table 5, or sterile distilled water (control sample). Five replications for each treatment were prepared, and the experiment was carried out using a completely randomized design (CRD).
# Mycelial growth in each treatment was recorded within seven days after incubation at room temperature with natural dark/light cycle in reference to the growth of the control. Percent inhibition of diameter growth (% PIDG) was calculated as described above. Analyses of statistical data were carried out using the standard analysis of variance (ANOVA) procedure using SAS software (version 9.2).
# [3] = test system: Fusarium oxysporum f. sp. cubense TR4 (FocTR4); assay: In vivo preventative testing using banana plants, soil application before inoculation; conditions: concluded from the banana plant data; ppm of BAC
# Protocol: The efficacy of a fungicidal composition of the present invention was tested against Fusarium oxysporum f. sp. cubense TR4 (FocTR4), the fungal pathogen responsible for Panama wilt of banana, for use as a preventative.
# Banana seedlings (cv. Berangan, 2-month-old) were obtained from Malaysian Agricultural Research and Development Institute (MARDI). Soil was prepared in polybags and sterilized using a large capacity autoclave at the Institute of Plantation Sciences (IKP). Seedlings were allowed to acclimatize in a greenhouse for approximately two months, reaching a height of about 50 cm, before being inoculated with FocTR4. Plants were watered with a dripping system, and fertilized with NPK.
# The seedlings were used in a randomized complete block design (RCBD) with seven treatments: healthy control, disease control, four concentrations (100 ppm, 300 ppm, 500 ppm and 700 ppm), and a commercial fungicide. For the four concentrations tested, compositions were either a test solution as described in Example 2, or a polymer control (as described in Example 1 with acrylamide polymer omitted). […]
# Four replications were used for each treatment, with four plants per replicate. […] Seedlings were assessed after inoculation to measure disease incidence (DI) and disease severity (DSI). […] DSI was measured by estimating the proportion of plant surface area was infected. […]
# P. palmivora [4] = assay: In vivo testing using cocoa pods, pre-treated then inoculated; set-up: species or system Phytophthora palmivora
# Protocol: The efficacy of a fungicidal composition of the present invention was tested against P. palmivora. Healthy, green cocoa pods were picked, prior to artificial inoculation with Phytophthora isolate M5. One highly virulent P. palmivora isolate (MI 5 from Sabah) with 5 replicates (pods) were used as the control.
# Each pod was washed carefully three times with sterile distilled water, the surface was disinfected for 2 minutes in 75% ethanol, and pods were air-dried at room temperature (25±2° C.). Different concentrations of the composition of the present invention (0-540 ppm) were prepared as for Examples 3 and 4, using the composition described in Example 1 which contained a polymeric film-forming agent, and spread on the pod surface to cover the whole pod. Cocoa pods with sterile distilled water were included as a negative control. After spreading, the pre-treated pods were inoculated with a 12 mm plug of 5-day old culture of P. palmivora grown on CMA plates by placing over the intact skin at the centre of each cocoa pod (see FIGS. 3A-I). The resulting pods were kept in moist plastic trays, covered with black polythene sheets to maintain moisture level, and incubated at 25±2° C. in the dark for seven days.
substance,measurement,setting,value
benzalkonium chloride [BAC],effective concentration for controlling an oomycete such as P. palmivora when applied to the fruit,P. palmivora [1],15-750 ppm
same,effective concentration for controlling an oomycete such as Phytophthora,Phytophthora palmivora,15-750 ppm
same,effective concentration for controlling a fungus such as Fusarium,[2],500-2000 ppm
same,"effective concentration for controlling a fungus such as Fusarium, when applied to the soil",[3],500-2000 ppm
same,pods showing fungal infection around plug,"P. palmivora [4]; cocoa pods treated with 18 ppm BAC, FIG. 3B",four out of five pods show fungal infection around plug
same,pods showing fungal infection around plug,"P. palmivora [4]; cocoa pods treated with 36 ppm BAC, FIG. 3C",four out of five pods show fungal infection around plug
same,pods showing fungal infection around plug,"P. palmivora [4]; cocoa pods treated with 54 ppm BAC, FIG. 3D",three out of five pods show fungal infection around plug
same,pods showing fungal infection around plug,"P. palmivora [4]; cocoa pods treated with 72 ppm BAC, FIG. 3E",two out of five pods show fungal infection around plug
same,pods showing fungal infection around plug,"P. palmivora [4]; cocoa pods treated with 90, 180, 360 and 540 ppm BAC, FIG. 3F-I",no fungal infection around plug
same,effective concentration for controlling an oomycete such as P. palmivora when applied to the fruit,"P. palmivora [4]; concluded from the cocoa pod data, ppm of BAC",15-750 ppm
